# Measured values from US20210228549A1 (Biohaven Therapeutics Ltd., priority 2015, published 2021).
# Where two headings read alike, the source gives them in different places.
# Key:
# [1] = PK in fasted male Sprague Dawley rats, IV administration of prodrug; type: in vivo
# Protocol: (§1) Blood samples were collected at pre-determined time points including a 0 h time point and usually between 7 and 8 additional time points not exceeding a 24 h period.
# (§2) Plasma samples were extracted and analyzed using the methods described in Plasma Sample Extraction and Analysis. All data are expressed as ng/mL of the free base. Samples that were below the limit of quantification (0.5 ng/mL) were not used in the calculation of averages.
# Pharmacokinetic parameters were calculated from the time course of the plasma concentrations. Pharmacokinetic parameters were determined with Phoenix Winnonlin (v6.3) software using a non-compartmental model. The maximum plasma concentration (Cmax) and time to the maximum plasma concentration (Tmax) of the compound of the disclosure were observed from the data. The area under the concentration-time curve (AUC) of the compound of the disclosure was calculated using the trapezoidal formula with calculation to the last quantifiable data point, and to infinity if applicable. Plasma half-life (t1/2) was calculated from 0.693/slope of the terminal elimination phase. Mean residence time, MRT, was calculated by dividing the area under the moment curve (AUMC) by the AUC. Any samples below the limit of quantitation (0.5 ng/mL) were treated as zero for pharmacokinetic data analysis. […]
# [2] = PK in fasted male Sprague Dawley rats, PO administration of prodrug; type: in vivo; settings: for Prodrug AUGlast, Mean: PO 5 mg/kg
# Protocol: as §1, §2
# Pharmacokinetic parameters were calculated from the time course of the plasma concentrations. Pharmacokinetic parameters were determined with Phoenix Winnonlin (v6.3) software using a non-compartmental model. The maximum plasma concentration (Cmax) and time to the maximum plasma concentration (Tmax) of the compound of the disclosure were observed from the data. The area under the concentration-time curve (AUC) of the compound of the disclosure was calculated using the trapezoidal formula with calculation to the last quantifiable data point, and to infinity if applicable. Plasma half-life (t1/2) was calculated from 0.693/slope of the terminal elimination phase. Mean residence time, MRT, was calculated by dividing the area under the moment curve (AUMC) by the AUC. Any samples below the limit of quantitation (0.5 ng/mL) were treated as zero for pharmacokinetic data analysis.
# Plasma Sample Extraction and Analysis: Analytical stock solutions (1.00 mg/mL of the free compound of the disclosure) were prepared in DMSO. Standards were prepared in diluted matrix containing 1 part 10% formic acid and 9 parts Sprague-Dawley rat plasma containing sodium heparin as the anticoagulant (pre-diluted with 1 part of 0.5M citric acid and 9 parts whole blood). Working solutions were prepared in 50:50 acetonitrile:water. Working solutions were then added to plasma to make calibration standards to final concentrations of 1000, 500, 100, 50, 10, 5, 1, and 0.5 ng/mL. Standards contained both the test article and riluzole. Standards were treated identically to the study samples.
# Sample Extraction: Plasma samples were extracted via acetonitrile precipitation on a Tomtec Quadra 96-Model 320 liquid handling system in a 96-well plate format.
# Melanoma C8161 cells = assay: Inhibition of human melanoma cell xenograft growth; type: in vivo; settings: C8161 xenograft in nude mice, P<0.01
# Protocol: Mice were treated every day for 21 days, and tumor sizes were measured twice weekly with a Vernier caliper.
# [3] = test system: patients diagnosed with Alzheimer's disease of mild-to-moderate severity; settings: for CDR01-Sum of Boxes, Model Estimates, Difference LSMean (SE) / ADAS-Cog Total Score, Model Estimates, Difference LSMean (SE) / Hippocampal Volume Change, Model Estimates, Difference LSMean (SE): placebo vs troriluzole; for Hippocampal Volume Change, Model Estimates, LSMean (SE) / Hippocampal Volume Change, Model Estimates, Difference LSMean (SE) / Hippocampal Volume Change, Analysis Value, Mean (SD) / Hippocampal Volume Change, Analysis Value, Median: volumetric MRI;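 on all read-outs here: multicenter parallel-group study, AD severity graded by Mini-Mental State Examination score (mild 20–24, moderate 14–19)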
# Protocol: This is a phase 2 multi-center, randomized, double blind, placebo-controlled, parallel group study in patients with mild to moderate Alzheimer's disease.
# Participants will be randomized to one of two groups: 280 mg of BHV-4157 or placebo. […] Treatment duration is 48 weeks (12 months). There is a screening period of up to 42 days and a 4-week post-treatment observation period.
# The CDR-SOB (Hughes, Berg, Danziger, Coben, & Martin, 1982) is a validated composite rating of cognition and everyday functioning used in longitudinal AD research which incorporates both informant input and direct assessment of performance. It assesses through semi structured interview 3 cognitive domains including memory, orientation, and judgement/problem solving and 3 everyday functional domains including community affairs, home and hobbies and personal care. There are 5 levels of impairment from none CDR=0 to severe CDR=3. The individual domain scores are added to create a sum of the box scores.
# [4] = test system: patients with Stage III and IV melanoma; settings: after only 14 days of treatment, cited from earlier work
# [5] = fasted male Sprague Dawley rats, prodrug in plasma
# [6] = Mild AD Patients Only, Week 48, troriluzole 280 mg once daily, N 62
# [7] = Mild AD Patients Only, Week 48, troriluzole 280 mg once daily, N 65
# [8] = mild-to-moderate AD, Week 48, troriluzole 280 mg once daily, N 118
# [9] = mild-to-moderate AD, Week 48, troriluzole 280 mg once daily, N 119
# [10] = Mild AD Patients Only, Week 48, troriluzole 280 mg once daily, N 48
# [11] = mild-to-moderate AD, Week 48, troriluzole 280 mg once daily, N 87
smiles,measurement,setting,value
"CN(CC(=O)Nc1nc2ccc(OC(F)(F)F)cc2s1)C(=O)CNC(C)(C)C [Example 125, 2-(tert-butylamino)-N-methyl-N-(2-oxo-2-((6-(trifluoromethoxy)benzo[d]thiazol-2-yl)amino)ethyl)acetamide]",Half life on conversion to Riluzole,[1],moderate to long half life
same,bioavailability,"[2]; rat, plasma, fasted male Sprague Dawley rats, PO 14 mg/kg, prodrug, read-out: Example 125 % F (bioavailability)",26%
same,AUC(0-inf),"[2]; rat, fasted male Sprague Dawley rats, PO 14 mg/kg, prodrug in plasma, read-out: Example 125 AUCinf, Mean",2290 ng·h/mL
same,AUC(0-t),"[2]; rat, fasted male Sprague Dawley rats, PO 14 mg/kg, prodrug in plasma, read-out: Example 125 AUClast, Mean",2260 ng·h/mL
same,Cmax,"[2]; rat, fasted male Sprague Dawley rats, PO 14 mg/kg, prodrug in plasma, read-out: Example 125 Cmax, Mean",213 ng/mL
same,half-life,"[2]; rat, fasted male Sprague Dawley rats, PO 14 mg/kg, prodrug in plasma, read-out: Example 125 t1/2, Mean (converted)",3.8 h
same,Tmax,"[2]; rat, fasted male Sprague Dawley rats, PO 14 mg/kg, prodrug in plasma, read-out: Example 125 tmax, Mean",1.8 h
same,Half life on conversion to Riluzole,"[2]; rats, oral administration",long half life
same,Oral bioavailability on conversion to Riluzole,"[2]; rats, oral administration",high oral bioavailability
same,Tumor volume vs untreated or vehicle-treated controls,Melanoma C8161 cells; 4.9 mg/kg (threefold lower in molar terms) p.o. gavage every day for 21 days,significant reduction in tumor volume
same,Tumor volume vs untreated or vehicle-treated controls,Melanoma C8161 cells; 14.6 mg/kg (equimolar to riluzole) p.o. gavage every day for 21 days,significant reduction in tumor volume
"CN(CC(=O)Nc1nc2ccc(OC(F)(F)F)cc2s1)C(=O)CNC(=O)CN [Example 204, 2-Amino-N-{[methyl({[6-(trifluoromethoxy)-1,3-benzothiazol-2-yl]carbamoyl}methyl)carbamoyl]methyl}acetamide]","Prodrug AUGlast, Mean",[2]; [5],0.90 ng·h/mL
same,Safety and tolerability,"[3]; 280 mg once daily, safety profile consistent with previous studies",relatively well tolerated
same,"CDR01-Sum of Boxes, Model Estimates, LSMean (SE)","[3]; Mild AD Patients Only, Week 48, change from baseline, 95% CI (1.1, 2.2)",1.7 (0.29)
same,"ADAS-Cog Total Score, Model Estimates, LSMean (SE)","[3]; Mild AD Patients Only, Week 48, change from baseline, 95% CI (2.7, 5.7)",4.2 (0.76)
same,"CDR01-Sum of Boxes, Model Estimates, Difference LSMean (SE)","[3]; Mild AD Patients Only, Week 48, 95% CI (−1.1, 0.5), P-Value 0.4347",−0.3 (0.40)
same,"ADAS-Cog Total Score, Model Estimates, Difference LSMean (SE)","[3]; Mild AD Patients Only, Week 48, 95% CI (−1.4, 2.7)",0.7 (1.02)
same,"CDR01-Sum of Boxes, Analysis Value, Mean (SD)",[3]; [6],7.1 (2.79)
same,"CDR01-Sum of Boxes, Analysis Value, Median",[3]; [6],6.5
same,"CDR01-Sum of Boxes, Change from Baseline, Mean (SD)",[3]; [6],1.4 (2.06)
same,"CDR01-Sum of Boxes, Change from Baseline, Median",[3]; [6],1.0
same,"ADAS-Cog Total Score, Analysis Value, Mean (SD)",[3]; [7],26.2 (8.22)
same,"ADAS-Cog Total Score, Analysis Value, Median",[3]; [7],26.0
same,"ADAS-Cog Total Score, Change from Baseline, Mean (SD)",[3]; [7],3.9 (5.90)
same,"ADAS-Cog Total Score, Change from Baseline, Median",[3]; [7],4.0
same,NPI across subgroups,"[3]; Week 48, only mild AD, only moderate AD, only ApoE4 positive, only ApoE4 negative patients",numerical differences of a potential benefit
same,"ADAS-Cog11 score, difference placebo vs troriluzole","[3]; mild AD, after 48 weeks, 95% CI −1.4, 2.7, p-value=0.5233",0.7
same,LS mean percent deformation change from baseline hippocampal volume,"[3]; mild AD, after 48 weeks, n=48, 95% CI −1.6, −0.6, placebo −1.6%",−1.1%
same,LS mean change from baseline on the NPI score,"[3]; mild AD, after 48 weeks, n=62, placebo 4.2 points",2.1 points
same,LS mean change from baseline on the ADAS-Cog11 score,"[3]; mild AD, after 48 weeks, n=65, 95% CI 2.7, 5.7, placebo 4.9 points",4.2 points
same,"CDR01-Sum of Boxes, Model Estimates, LSMean (SE)","[3]; mild-to-moderate AD, Week 48, change from baseline, 95% CI (1.7, 2.5)",2.1 (0.21)
same,"CDR01-Sum of Boxes, Model Estimates, Difference LSMean (SE)","[3]; mild-to-moderate AD, Week 48, 95% CI (−0.8, 0.3), P-Value 0.4474",−0.2 (0.28)
same,"ADAS-Cog Total Score, Model Estimates, Difference LSMean (SE)","[3]; mild-to-moderate AD, Week 48, 95% CI (−1.8, 1.8), P-Value 0.9809",0.0 (0.93)
same,"CDR01-Sum of Boxes, Analysis Value, Mean (SD)",[3]; [8],8.3 (3.24)
same,"CDR01-Sum of Boxes, Analysis Value, Median",[3]; [8],8.0
same,"CDR01-Sum of Boxes, Change from Baseline, Mean (SD)",[3]; [8],1.9 (2.37)
same,"CDR01-Sum of Boxes, Change from Baseline, Median",[3]; [8],2.0
same,"ADAS-Cog Total Score, Analysis Value, Mean (SD)",[3]; [9],31.5 (10.82)
same,"ADAS-Cog Total Score, Analysis Value, Median",[3]; [9],30.0
same,"ADAS-Cog Total Score, Charge from Baseline, Mean (SD)",[3]; [9],0.8 (7.40)
same,"ADAS-Cog Total Score, Charge from Baseline, Median",[3]; [9],0.0
same,"NPI score, difference troriluzole vs placebo","[3]; mild-to-moderate AD, after 48 weeks, 95% CI −4.08, 1.10, p-value=0.258",−1.5
same,LS mean change from baseline on the NPI score,"[3]; mild-to-moderate AD, after 48 weeks, n=120, placebo 3.8 points",2.3 points
same,"Hippocampal Volume Change, Model Estimates, LSMean (SE)","[3]; Mild AD Patients Only, Week 48, 95% CI (−1.6, −0.6)",−1.1 (0.27)
same,"Hippocampal Volume Change, Model Estimates, Difference LSMean (SE)","[3]; Mild AD Patients Only, Week 48, 95% CI (−1.2, 0.3), P-Value 0.2240",−0.5 (0.38)
same,"Hippocampal Volume Change, Analysis Value, Mean (SD)",[3]; [10],−1.1 (1.61)
same,"Hippocampal Volume Change, Analysis Value, Median",[3]; [10],−0.9
same,"Hippocampal Volume Change, Model Estimates, LSMean (SE)","[3]; mild-to-moderate AD, Week 48, 95% CI (−1.4, −0.7)",−1.1 (0.18)
same,"Hippocampal Volume Change, Model Estimates, Difference LSMean (SE)","[3]; mild-to-moderate AD, Week 48, 95% CI (−0.6, 0.5), P-Value 0.8670",0.0 (0.26)
same,"Hippocampal Volume Change, Analysis Value, Mean (SD)",[3]; [11],−1.1 (1.50)
same,"Hippocampal Volume Change, Analysis Value, Median",[3]; [11],−0.9
"CN(CC(=O)Nc1nc2ccc(OC(F)(F)F)cc2s1)C(=O)CNC1CCNCC1 [Example 216, N-methyl-2-[(piperidin-4-yl)amino]-N-({[6-(trifluoromethoxy)-1,3-benzothiazol-2-yl]carbamoyl}methyl)acetamide]","Prodrug AUGlast, Mean",[2]; [5],16.6 ng·h/mL
Nc1nc2ccc(OC(F)(F)F)cc2s1 [riluzole],Patients with clinical or radiologic evidence of tumor response,[4]; listed as Riluzole,four of 12
same,Patients with clinical or radiologic evidence of tumor response,[4],four of twelve
